{"source": "patent US10668032B2", "about": "(SyneuRx International (Taiwan) Corp., priority 2016, dated 2020)", "key": {"primary cortical cells": {"test_system": "primary cortical cells", "assay": "Neurogenesis (BrdU/NeuN co-localization) in primary cortical culture after Aβ25-35", "assay_type": "cell-based, rat", "details": "0.5 mM, 4 days; compared with the other two drugs", "method": "Primary cortical cultures were prepared from embryonic day 18 (E18) fetal Spragu-Dawley (SD) rat brains. Culture medium was removed from cells and replace with BrdU labeling solution and incubated at 37° C. for 4 days aligned with treatments after Aβ25-35 for 2 days. Cells were fixed in 4% PFA and washed in PBS, blocked with 2% bovine serum albumin (BSA) and 0.03% Triton X-100 in PBS, acid-washed with 2N HCl and phosphate/citric acid buffer (pH 7.4). Next, anti-BrdU primary antibody (1:250, Thermo Scientific) or anti-NeuN primary antibody (1:300, Abcam) were added. The goat anti-rat IgGAlexa Fluor-conjugated secondary antibodies (1:200; Thermo Scientific); anti-mouse IgG Alexa Fluor-conjugated secondary antibodies (1:500; Thermo Scientific) were applied to recognize the primary antibodies of the BrdU and NeuN respectively.\n(§1) The coverslips were observed under a digital imaging fluorescence microscope (Olympus BX61; Japan) equipped with filter sets to detect the corresponding fluorescence signals.\nThe second part of mechanism study was focused on neurogenesis. The impairment of neurogenesis in the adult hippocampus has been an important evidence of the pathogenesis of Alzheimer's disease. […]"}, "[1]": {"test_system": "MPTP-induced C57BL/6J mice", "assay": "Pole test in MPTP-induced mice", "assay_type": "in vivo, mouse", "details": "256 mg/kg body weight/day after 5 weeks of MPTP 30 mg/kg/day i.p.", "method": "Animals were housed and kept in the same condition as previous described. Male C57BL/6J mice (age: 12 weeks) were randomly assigned to 2 groups—vehicle control and MPTP-induced groups. The mice of MPTP-induced group were intraperitoneally injected with MPTP (30 mg/kg body weight/day) for five weeks, while those in the vehicle control group received injections of the same volume of saline. After 5 weeks of MPTP exposure, pole test was performed to elucidate the effect of MPTP-induced disability.\nPole test was used to measure the degree of bradykinesia, a typical symptom of parkinsonism. The animals were positioned head upward near the top of a rough-surfaced pole (1 cm in diameter and 60 cm in height). The time taken until they turned downward (Tturn) and the total time taken to climb down to the floor (TLA), were recorded. When the mouse was not able to turn downward, Tturn was taken as 60 seconds (default value)."}, "[2]": {"test_system": "primary cortical neuronal culture", "assay": "Detection of cellular reactive oxygen species (CellROX) after 3-NP in primary cortical culture", "assay_type": "cell-based, rat", "method": "Reactive oxygen species (ROS) are detected on primary cortical neuronal culture by CellROX Oxidative Reagents (catalog number 10444, Life Technologies Corp. USA). […] The cells were then exposed to 2.5 mM 3-NP for 24 hours. Subsequently, […] CellROX Reagent was added, and then incubated for […]. CellROX Green Reagent is a DNA dye, and upon oxidation, it binds to DNA; thus, its signal is localized in the nucleus and mitochondria. ROS were quantified by fluorescence intensity. The samples were observed under a laser scanning confocal microscope Zeiss LSM700 (Zeiss, Germany) equipped with filter sets to detect fluorescent signal."}, "[3]": {"test_system": "GFAP positive cells in cortical culture", "assay": "GFAP immunocytochemistry in cortical culture after Aβ25-35", "assay_type": "cell-based, rat", "method": "Cells were fixed in 4% PFA and washed in PBS, blocked with 2% bovine serum albumin (BSA) and 0.03% Triton X-100 in PBS, and then incubated with mouse monoclonal antibody against microtubule-associated protein-2 (MAP-2) (Cat. No. MAB378, 1:150, CHEMICON International, Inc., Temecula, Calif., USA); rabbit polyclonal antibody against GFAP (Cat. No. Z0334, 1:600, DakoCytomation Denmark A/S, Denmark). The goat anti-mouse IgG Alexa Fluor-conjugated secondary antibodies (1:500; Cat No. A11003, Thermo Scientific); anti-rabbit IgG Alexa Fluor-conjugated secondary antibodies (1:500; Thermo Scientific) were applied respectively to recognize the primary antibodies of the MAP-2 and GFAP.\nas §1\nGlial fibrillary acidic protein (GFAP) is an intermediate filament protein expressed by cells in the CNS, and is also recognized as an astrocyte maturation marker. Upregulation of GFAP, indicating gliosis, is commonly observed after CNS lesion; therefore, expression of GFAP could be useful to understand the state of neurological diseases."}, "[4]": {"assay": "Plasma pharmacokinetics of benzoic acid after oral gavage", "assay_type": "in vivo, Sprague-Dawley rats", "details": "rat, single oral gavage", "method": "The plasma concentration of benzoic acid was determined by LC/MS/MS. The chromatographic separation was carried out on a ODS 5 um column (4.6×150 mm, Biosil). The mobile phase consisted of a mixture of 1% mobile phase A and 99% mobile phase B. […] The injection volume was 50 μL and the column temperature was 23° C. All solvents were HPLC grade quality. Plots of plasma concentration of benzoic acid versus time are constructed. The fundamental pharmacokinetic parameters were obtained from non-compartmental analysis (NCA) of the plasma data using WinNonlin."}, "[5]": {"details": "NaBen 287.9 mg/kg + Li2CO3 74.2 mg/kg or LiBen 255.3 mg/kg"}}}
{"smiles": "O=C([O-])c1ccccc1.[Li+]", "note": "[lithium benzoate]", "values": [{"measurement": "neurogenesis (BrdU(+)/NeuN(+) cells) after Aβ25-35 exposure", "setting": "primary cortical cells", "value": "unsurpassed performance of neurogenesis"}, {"measurement": "total time for turning down (TLA), pole test", "setting": "[1]", "value": "significantly reduced"}, {"measurement": "turning time (Tturn), pole test", "setting": "[1]", "value": "significantly reduced"}, {"measurement": "ROS reduction effect compared with sodium benzoate and lithium chloride", "setting": "[2]; 0.5 mM each", "value": "much more significant"}, {"measurement": "ROS production induced by 3-NP", "setting": "[2]; 0.5 mM, incubated 24 hours before 3-NP", "value": "back to the basal level"}, {"measurement": "ROS production induced by 3-NP", "setting": "[2]; lithium benzoate 0.5, 1 or 3 mM 24 h, then 2.5 mM 3-NP 24 h", "value": "significantly reduced"}, {"measurement": "reduction of GFAP positive cells compared with LiCl", "setting": "[3]; LiBen 0.5 mM vs LiCl 1 mM", "value": "better effect than LiCl"}, {"measurement": "number of GFAP positive cells after Aβ25-35 exposure", "setting": "[3]; post-treatment 0.5 mM", "value": "significantly reduced"}, {"measurement": "AUC Extr of benzoic acid", "setting": "[4]; [5]", "value": 2.63, "unit": "%"}, {"measurement": "AUCInf of benzoic acid", "setting": "[4]; [5]", "value": "62,874 hr * ng/mL"}, {"measurement": "AUClast of benzoic acid", "setting": "[4]; [5]", "value": "62,059 hr * ng/mL"}, {"measurement": "Cmax of benzoic acid", "setting": "[4]; [5]", "value": "109,321 ng/mL"}, {"measurement": "MRT of benzoic acid", "setting": "[4]; [5]", "value": 45, "unit": "min"}, {"measurement": "Tmax of benzoic acid", "setting": "[4]; NaBen 287.9 mg/kg + Li2CO3 74.2 mg/kg or LiBen 255.3 mg/kg (same molarity)", "value": 11.4, "unit": "min"}]}
